Measurements published in US9901646B2, “Methods for induction of antigen-specific immune tolerance” (École Polytechnique Fédérale de Lausanne (EPFL), priority 2010, dated 2018).
One block for each molecule: values may come before it. 8‑arm PEG = 8-arm polyethylene glycol (PEG) dendrimer, conjugated via pyridyldisulfide groups to cysteine thiols

Assays:
[1] = tested on: human epithelial 293T cells; experiment: Binding of bacteria displaying peptide to cells, flow cytometry; details: peptide displayed on bacteria
Experimental: (§1) Method: To characterize specificity, individual sequenced clones were analyzed using cytometry for binding toward human erythrocytes (type A and B), mouse erythrocytes, HEK293T cells and HUVECs. For binding assays, 10^6 mammalian cells were scanned on an AccuriA6 after co-incubation with 5×10^7 bacteria for 1 h at 4° C. followed by three washes in HFS (5% HSA, 2% FBS in PBS). The percentage of cells with green bacteria bound was calculated using FLOWJO Software.

[2] = tested on: human erythrocytes (type A and B); experiment: as above; details: peptide displayed on bacteria, 1 h at 4° C.
Experimental: as §1

[3] = tested on: human endothelial HUVECs; experiment: as above; details: peptide displayed on bacteria
Experimental: as §1

[4] = tested on: mouse erythrocytes; experiment: scFv binding to erythrocytes, flow cytometry with anti-6×His-PE
Experimental: FIG. 19 presents experimental results as a flow cytometry histogram. Mouse erythrocytes were incubated with TER119-SIINFEKL (grey filled histogram) or albumin (empty histogram). Fluorescent signal comes from the anti-6×His-PE antibody used in detection of the scFv.

[5] = tested on: OT-I CD8+ T cells; experiment: OT-I tolerance and challenge model (Example 21); format: in vivo, mouse
Experimental: 3×10^5 CFSE-labeled OT-I CD8^+ T cells were injected into CD45.1^+ recipient mice as described above. 1 and 6 d following adoptive transfer, mice were intravenously administered 10 μg of ERY1-OVA or OVA, or an equimolar dose of TER119-SIINFEKL in 100 μL, saline into the tail vein. 15 d following adoptive transfer, mice were challenged with 5 μg OVA and 25 ng ultra-pure Escherichia coli LPS (InvivoGen) in 25 μL intradermally into each rear leg pad (Hock method, total dose of 10 μg OVA and 50 ng LPS). Mice were sacrificed 4 d following challenge, and spleen and draining lymph node cells were isolated for restimulation. For flow cytometry analysis of intracellular cytokines, cells were restimulated in the presence of 1 mg/mL OVA or 1 μg/mL SIINFEKL peptide (Genscript) for 3 h. Brefeldin-A (Sigma, 5 μg/mL) was added and restimulation resumed for an additional 3 h prior to staining and flow cytometry analysis.
(§2) The following anti-mouse antibodies were used for flow cytometry: CD1d Pacific Blue, CD3E PerCP-Cy5.5, CD8a PE-Cy7, CD45.2 Pacific Blue, IFNγ-APC, CD8a APC-eF780, (all from eBioscience), in addition to fixable live/dead dye (Invitrogen), and annexin-V-Cy5 labeling kit (BioVision). Samples were analyzed on a CyAn ADP flow cytometer (Beckman Coulter). Cells were washed first with PBS, stained for 20 min on ice with live/dead dye, blocked for 20 min on ice with 24G2 hybridoma medium, surface stained for 20 min on ice, fixed in 2% paraformaldehyde for 20 min ice, intracellularly stained in the presence of 0.5% saponin for 45 min on ice, followed by a final wash prior to analysis. For apoptosis staining, annexin-V-Cy5 was added 5 min prior to analysis.

[6] = tested on: OT-I CD8+ T cells; experiment: OT-I CD8+ T cell adoptive transfer, short-term proliferation study (Example 21); format: in vivo, mouse; details: intravenous
Experimental: CD8^+ T cells from OT-I (CD45.2^+) mouse spleens were isolated using a CD8 magnetic bead negative selection kit (Miltenyi Biotec) as per the manufacturer's instructions. Freshly isolated CD8^+ OT-I cells were resuspended in PBS and labeled with […] carboxyfluorescein succinimidyl ester (CFSE, Invitrogen) for 6 min at room temperature, and the reaction was quenched for 1 min with an equal volume of IMDM with 10% FBS (Gibco). Cells were washed, counted, and resuspended in pure IMDM prior to injection. 3×10^6 CFSE-labeled CD8^+ OT-I cells were injected intravenously into the tail vein of recipient CD45.1^+ mice. For short-term proliferation studies, 10 μg of ERY1-OVA or OVA, or an equimolar dose of TER119-SIINFEKL in 100 μL volume was injected 24 h following adoptive transfer. Splenocytes were harvested 5 d following antigen administration and stained for analysis by flow cytometry.
as §2

[7] = tested on: mouse erythrocytes; experiment: 8-arm PEG constructs binding to erythrocytes in vitro, flow cytometry
[8] = tested on: circulating erythrocytes; experiment: 8-arm PEG constructs binding to circulating erythrocytes after intravenous injection, flow cytometry; format: in vivo, mouse
Excerpt: FIG. 17 presents experimental results depicting erythrocyte cell-surface half-life of 8-arm PEG-ERY1 (filled circles) and 8-arm PEG-MIS (empty boxes), determined by flow cytometry.

[9] = Prophylaxis study: tolerance towards wild-type asparaginase; format: in vivo, mouse; details: re-administration / six challenges with wild-type asparaginase
Experimental: A prophylaxis study was performed to determine if erythrocyte-binding asparaginase induced bona-fide immune tolerance towards wild-type asparaginase. Mice previously administered with wild-type clinical asparaginase were challenged with an additional dose following the onset of humoral immunity. […] On average, mice tolerized with erythrocyte-binding asparaginase developed approx. 6000-fold fewer antibodies towards clinical wild-type asparaginase.
(§3) Desired dosages of ERY1-ASNase or ASNase were prepared in sterile 0.9% saline, and 100 μL of the solution was injected into the tail vein of anesthetized C57BL/6 mice. Blood was drawn at pre-determined time points either by cheek puncture or tail incisions.
(§4) Anti-asparaginase antibody detection from serum method Serum from experimental groups was serially diluted into PBS and incubated for 2 h at RT on ASNase-coated ELISA plates. HRP-conjugated anti-mouse IgG (Southern Biotech) was used as the detection antibody.

[10] = Immunogenicity of erythrocyte-bound versus wild-type asparaginase, serum IgG ELISA; format: in vivo, mouse; details: 2-dose regimen, 15 μg i.v. every 2 days, up to 21 days following the final injection
Experimental: A mouse erythrocyte-binding variant of asparaginase (ERY1-ASNase) was created by conjugating the mouse erythrocyte-specific peptide ERY1 (Kontos and Hubbell, 2010). To determine the immunogenicity of erythrocyte-bound versus wild-type asparaginase, a study was performed to evaluate to evaluate two regimens, namely exposure to a 2-dose and a 6-dose regimen of the ERY conjugate (ERY1-ASNase) or the native form (ASPARAGINASE MEDAC, Medac GmbH; which was also used as the raw material for the ERY1-ASNase conjugate). In each regimen, 15 μg of ERY1-ASNase or ASNase was administered intravenously every 2 days, and blood was drawn every 7 days.
as §3, §4

[11] = Cross-over study: reversal of pre-existing immunity towards asparaginase; format: in vivo, mouse; details: 21 days following multiple intravenous doses two days apart
Experimental: A cross-over study was performed to determine if erythrocyte-binding asparaginase could reverse immunity towards clinical asparaginase. Mice were intravenously administered multiple doses of wild-type asparaginase two days apart. […] Immunized mice were then therapeutically treated with erythrocyte-binding asparaginase regimens at varying doses. In both dosing regimens, ERY-conjugated asparaginase reduced antibody levels approx. 10-fold, thus reversing pre-existing humoral immunity
as §3
Serum from experimental groups was serially diluted into PBS and incubated for 2 h at RT on ASNase-coated ELISA plates. HRP-conjugated anti-mouse IgG (Southern Biotech) was used as the detection antibody.

[12] = tested on: mouse erythrocytes; experiment: TER119-ChrA binding to erythrocytes; details: data not shown
[13] = tested on: BDC2.5 CD4 T cells; experiment: Co-culture of BDC2.5 splenic dendritic cells and CD4 T cells, proliferation; format: cell-based, mouse; details: co-culture with BDC2.5 splenic dendritic cells
Excerpt: FIG. 24 is a plot of experimental results showing proliferation of CD4 T cells from the transgenic NODBDC2.5 mouse in co-culture with splenic DCs, with various media additives.
To study T cell behavior towards the chromogranin-A antigen variants, the NODBDC2.5 transgenic mouse was used, which harbors T cells specific for the recognition of the chromogranin-A antigen.

[14] = tested on: erythrocytes (CD45−); experiment: In vivo binding to circulating erythrocytes after intravenous administration; design: species or system mouse
Experimental: 150 μg of ERY1-OVA or OVA in 0.9% saline (B. Braun) in a volume of 100 μL was injected intravenously into the tail of 8-12 week old female C57BL/6 mice while under anesthesia with isoflurane. […] At predetermined time points, 5 μL of blood was taken from a small incision on the tail, diluted 100-fold into 10 mM EDTA in PBS, washed three times with PBS with 10 mg/mL BSA, and analyzed for OVA content by flow cytometry and ELISA. OVA was quantified by sandwich ELISA, using a mouse monoclonal anti-OVA antibody (Sigma) for capture, a polyclonal rabbit anti-OVA antibody (AbD SEROTEC) for detection, a goat anti-rabbit-IgG-HRP antibody (BioRad) for final detection, followed by TMB substrate (GE Life Sciences). Hematological characterization was performed on an ADVIVA 2120 Hematology System (Siemens). Erythrocyte-bound ERY1-GST was detected by incubating labeled cells with goat anti-GST (GE Healthcare Life Sciences), followed by incubation with AlexaFluor488 donkey anti-goat (Invitrogen), and analyzed by flow cytometry. For biodistribution studies, 20 μg of ERY1-APC or MIS-APC was injected intravenously into the tail vein of 8-12 week old female C57BL/6 mice as described above. Mice were sacrificed at predetermined time points, and the spleen, blood, and liver were removed. […]

[15] = following challenge with OVA and LPS
[16] = i.v. 1 and 6 days after adoptive transfer, 4 d after OVA/LPS challenge

Molecule: GQSGQSWSRAILPLFKIQPVGSSGGS (Erythrocyte Binding Peptide) [ERY50]
- binding to epithelial 293T cells [1]: bound epithelial/endothelial cells
- binding to human erythrocytes, specificity as compared to 293T cells and HUVECs [2]: bound human erythrocytes
- binding to endothelial HUVECs [3]: bound epithelial/endothelial cells

Molecule: TER119-SIINFEKL: recombinant fusion of scFv TER119 to the MHC-I immunodominant domain of OVA (SGLEQLESIINFEKL; epitope)
- binding to mouse erythrocytes [4]: bound mouse erythrocytes
- fewer IFNγ-expressing cells in lymph nodes compared to challenge control mice [5, 15]: 33 fold
- fewer IFNγ-expressing cells in lymph nodes compared to mice treated with an equivalent dose of OVA [5, 15]: over 14 fold
- fewer OT-I CD8+ T cells in draining lymph nodes as compared to OVA-treated mice [5, 16]: over 13 fold
- fewer OT-I CD8+ T cells in draining lymph nodes than challenge control mice [5, 16]: over 42 fold
- PD-1+ proliferating OT-I CD8+ T cells compared to OVA ([6]; 10 μg or equimolar dose): much higher numbers
- annexin-V+ proliferating OT-I CD8+ T cells compared to OVA ([6]; 10 μg or equimolar dose): much higher numbers
- OT-I CD8+ T cell proliferation (CFSE dilution) compared to ERY1-OVA or OVA ([6]; spleen, 5 days, dose equimolar to 10 μg OVA): markedly enhanced

- binding to mouse erythrocytes following in vitro incubation [7]: bind to mouse erythrocytes
- binding to circulating erythrocytes upon intravenous injection ([8]; flow cytometry): bind to circulating erythrocytes
Molecule: 8-arm PEG-ERY1: fluorescent 8-arm PEG construct conjugated with ERY1 peptide by disulfide bond (H-WMVLPWLPGTLDGGSGC(8‑arm PEG)RG-NH2; also: Cys disulfide-linked to 8-arm PEG scaffold (fluorescent))
- cell-surface half-life on circulating erythrocytes ([8]; intravenous administration): 2.2 h
- time detected on circulating erythrocytes following intravenous administration ([8]; intravenous administration): 5 h

B1: asparaginase (protein, UniProt P00805 23-348, looked up)
L-asparaginase 2: LPNITILATGGTIAGGGDSATKSNYTVGKVGVENLVNAVPQLKDIANVKGEQVVNIGSQDMNDNVWLTLAKKINTDCDKTDGFVITHGTDTMEETAYFLDLTVKCDKPVVMVGAMRPSTSMSADGPFNLYNAVVTAADKASANRGVLVVMNDTVLDGRDVTKTNTTDVATFKSVNYGPLGYIHNGKIDYQRTPARKHTSDTPFDVSKLNELPKVGIVYNYANASDLPAKALVDAGYDGIVSAGVGNGNLYKSVFDTLATAAKTGTAVVRSSRVPTGATTQDAEVDDAKYGFVASGTLNPQKARVLLQLALTQTKDPQQIQQIFNQY
notes: native asparaginase, Medac GmbH
- antibody response after challenge with wild-type asparaginase [9]: increased or remained high
- asparaginase-specific antibody titers (immunogenicity) [10]: induced vigorous immunity
- anti-asparaginase antibodies in serum [11]: high levels of anti-asparaginase antibodies

- binding to mouse erythrocytes [12]: tightly bound mouse erythrocytes
B2: TER119-ChrA: chromogranin-A mimotope 1040-p31 recombinantly fused to mouse erythrocyte-specific scFv TER119 (protein)
scFv: EVKLQESGGGLVQPGGSLKLSCVASGFTFRDHWMNWVRQAPGKTMEWIGDIRPDGSDTNYAPSVRNRFTISRDNTRSILYLQMGNMRSDYTATYYCVRDSPTRAGLMDAWGQGTSVTVSSAGGGGSGGGGSGGGGSGGGGSDIQMTQSPSVLSASVGDRVTLNCKASQNINKYLNRYQQKLGEAPKVLVYNTNNLQTGIPSRFSGSGSGTDFTLTISSLQPEDFATYFCFQHYTWPTFGGVTKLEIKRTHHHHHHGGGYVRPLWVRME
- processing and display on MHC-II, priming of antigen-specific proliferation of BDC2.5 CD4 T cells in vitro [13]: efficiently processed

B3: ovalbumin (protein)
chain: GSIGAASMEFCFDVFKELKVHHANENIFYCPIAIMSALAMVYLGAKDSTRTQINKVVRFDKLPGFGDSIEAQCGTSVNVHSSLRDILNQITKPNDVYSFSLASRLYAEERYPILPEYLQCVKELYRGGLEPINFQTAADQARELINSWVESQTNGIIRNVLQPSSVDSQTAMVLVNAIVFKGLWEKAFKDEDTQAMPFRVTEQESKPVQMMYQIGLFRVASMASEKMKILELPFASGTMSMLVLLPDEVSGLEQLESIINFEKLTEWTSSNVMEERKIKVYLPRMKMEEKYNLTSVLMAMGITDVFSSSANLSGISSAESLKISQAVHAAHAEINEAGREVVGSAEAGVDAASVSEEFRADHPFLFCIKHIATNAVLFFGRCVSP
notes: model antigen
- binding to circulating eryptotic (annexin-V+) and healthy (annexin-V−) erythrocytes [14]: nonbinding
